One series relates to gastric acid secretion. Put plainly: Inhibition of pentagastrin-induced gastric acid secretion in fasted Heidenhain pouch dogs. It is filed as in vivo. The note with it: intravenous; for inhibition in vivo at 1 mg/kg / inhibition in vivo at 5 mg/kg / inhibition in vivo at 10 mg/kg: Canis lupus familiaris, 1.5 h, 90 minutes after start of pentagastrin infusion, lowest acid output after drug vs mean acid output immediately prior, read-out: Acid Antisecretory Activity (% Inhibition). The method, then: The activity of the compounds of the present invention, as anti-ulcer agents, is determined by their ability to pass at least one of the following two standard biological and/or pharmacological tests, viz., (1) measuring their ability to antagonise those particular actions of histamine which are not blocked by an antihistamine such as mepyramine, i.e., a measure of their ability to block certain histamine H2 -receptor sites; and (2) measuring their ability to inhibit gastric acid secretion in the stomachs of Heidenhain pouch dogs that had previously been treated with pentagastrin in order to stimulate the secretion of said acid (in their stomachs) for these particular purposes.
The following 3-amino-5-(4-pyridyl)-1,2,4-triazole final products of Examples I-V, VII-XII, XIV-XVI, XVIII-XX, XXII-XXIII, XXV-XXVI, XXVIII and XXXII, respectively, were tested for antiulcer activity in terms of their ability to inhibit gastric acid secretion in groups of fasted Heidenhain pouch dogs. No anesthetic was used in this study. The animals were first administered pentagastrin in order to stimulate acid output in their stomachs by the continuous infusion of said drug into a superified leg vein at doses earlier determined to stimulate near maximal acid output from the gastric pouch. Gastric juice was then collected at 30-minute intervals following the start of a pentagastrin infusion amd measured to the nearest one-tenth of a […] (0.1 ml.). Ten collections were taken for each dog during an experiment. Acid concentration was then determined by titrating 1.0 ml. of gastric juice to a pH value of pH 7.4 with 0.1 N aqueous sodium hydroxide, using an Autoburette and a glass electrode pH meter (Radiometer) for these purposes. The animals were then administered the test compounds at 10, 5.0 and 1.0 mg./kg., respectively, or the control vehicle alone, via the intravenous route of administration,at 90 minutes following the start of the pentagastrin infusion. Gastric antisecretory effects were thereafter calculated by comparing the lowest acid output after drug administration with the mean acid output immediately prior to same and the results obtained in this manner are reported in the following table, where the entries given for each individual compound are expressed in terms of percent inhibition (%) at the dose level indicated: […]

A short description of series [1]: Signs of toxic side effects in Heidenhain pouch dogs after intravenous dosing. In kind it is in vivo. The note with it: 1.0 mg./kg. to 10 mg./kg. The source says:
As previously indicated, the 3-amino-5-(4-pyridyl)-1,2,4-triazole compounds of this invention are all readily adapted to therapeutic use as histamine H2 -receptor inhibitors for the control of peptic ulcers, especially in view of their ability to inhibit the secretion of gastric acid in the body to a statistically significant degree. […] The other compounds of this invention also cause similar results. Furthermore, all the herein described compounds of this invention can be administered orally, for the present purposes at hand, without causing any significant untoward pharmacological side reactions to occur in the subject to whom they are so administered. In general, these compounds are ordinarily administered at dosage levels ranging from about 0.5 mg. to about 50 mg. per kg. of body weight per day, although variations will necessarily occur depending upon the condition and individual response of the subject being treated and the particular type of pharmaceutical formulation chosen.

In the case of `CCNc1cc(-c2nc(NCC)n[nH]2)ccn1` [Example XI, 3-(monoethylamino)-5-[2-(N-monoethylamino)-4-pyridyl]-1,2,4-triazole], the inhibition in vivo at 1 mg/kg in the series on gastric acid secretion was found to be 38%.
With `Cc1ccc(CNc2cc(-c3nc(N)n[nH]3)ccn2)cc1C` [Example XXVIII, 3-amino-5-{2-[N-mono(3',4'-dimethylbenzyl)amino]-4-pyridyl}-1,2,4-triazole], the inhibition in vivo at 5 mg/kg with gastric acid secretion is 49%.
For the compound `Nc1n[nH]c(-c2ccnc(NCC(F)(F)F)c2)n1` [Example XXV, 3-amino-5-{2-[N-mono(2,2,2-trifluoroethyl)amino]-4-pyridyl}-1,2,4-triazole], in the series on gastric acid secretion, the inhibition in vivo at 1 mg/kg stood at 10%.
As to `C=CCNc1cc(-c2nc(N)n[nH]2)ccn1` [Example IV], in the series with gastric acid secretion, the inhibition in vivo at 1 mg/kg came to 31%.
With `CCCNc1cc(-c2nc(N)n[nH]2)ccn1` [Example I, 3-amino-5-{2-[N-mono(n-propyl)amino]-4-pyridyl}-1,2,4-triazole], in the series with gastric acid secretion, the inhibition in vivo at 1 mg/kg was 33% and the inhibition in vivo at 5 mg/kg was found to be 64%.
As to `CCN(CC)c1cc(-c2nc(N)n[nH]2)ccn1` [Example X, 3-amino-5-[2-(N,N-diethylamino)-4-pyridyl]-1,2,4-triazole], in the series with gastric acid secretion, the inhibition in vivo at 5 mg/kg stood at 68%.
Turning to `CNc1cc(-c2nc(N)n[nH]2)ccn1` [Example XIX, 3-amino-5-[2-(N-monomethylamino)-4-pyridyl]-1,2,4-triazole], in the series on gastric acid secretion, the inhibition in vivo at 1 mg/kg was 50%.
Take `Nc1n[nH]c(-c2ccnc(NCc3ccccc3)c2)n1` [Example XIV, 3-amino-5-[2-(N-monobenzylamino)-4-pyridyl]-1,2,4-triazole]: in the series on gastric acid secretion, the inhibition in vivo at 1 mg/kg was determined as 21% and the inhibition in vivo at 10 mg/kg is 72%.
Turning to `CN(Cc1ccccc1)c1cc(-c2nc(N)n[nH]2)ccn1` [Example XXXII, 3-amino-5-[2-(N-methyl-N-benzylamino)-4-pyridyl]-1,2,4-triazole], the inhibition in vivo at 10 mg/kg with gastric acid secretion is 25%.
With `Nc1n[nH]c(-c2ccnc(NCc3ccc(Cl)cc3)c2)n1` [Example XV, 3-amino-5-{2-[N-mono(p-chlorobenzyl)amino]-4-pyridyl}-1,2,4-triazole], in the series with gastric acid secretion, the inhibition in vivo at 1 mg/kg turned out to be 21% and the inhibition in vivo at 10 mg/kg came out at 62%.
In the case of `CCNc1cc(-c2nc(N)n[nH]2)ccn1` [Example XX, 3-amino-5-[2-(N-monoethylamino)-4-pyridyl]-1,2,4-triazole], in the series with gastric acid secretion, the inhibition in vivo at 1 mg/kg is 51%, the inhibition in vivo at 5 mg/kg turned out to be 89% and the inhibition in vivo at 10 mg/kg was 93%. The “inhibit the pentagastrin-induced secretion of gastric acid (in words)” value in the series on gastric acid secretion (1.0 mg./kg. to 10 mg./kg., Heidenhain pouch dogs) is “consistently inhibit the pentagastrin-induced secretion of gastric acid from stomachs of Heidenhain pouch dogs to a significantly high degree”. Moreover, the “signs of toxic side effects” value in series [1] is reported as “without showing any substantial signs of toxic side effects”.
For the compound `CCCCNc1cc(-c2nc(N)n[nH]2)ccn1` [Example XXII, 3-amino-5-{2-[N-mono(n-butyl)amino]-4-pyridyl}-1,2,4-triazole], in the series on gastric acid secretion, the inhibition in vivo at 1 mg/kg was 29%.
As for `CCNc1cc(-c2nc(NC)n[nH]2)ccn1` [Example XXVI, 3-(N-monomethylamino)-5-[2-(N-monoethylamino)-4-pyridyl]-1,2,4-triazole], in the series on gastric acid secretion, the inhibition in vivo at 1 mg/kg is 32% and the inhibition in vivo at 5 mg/kg came to 64%.
`Cc1ccc(CNc2cc(-c3nc(N)n[nH]3)ccn2)cc1` [Example XVI]: the inhibition in vivo at 5 mg/kg with gastric acid secretion amounted to 33%.
With `CCCCCCNc1cc(-c2nc(N)n[nH]2)ccn1` [Example II, 3-amino-5-{2-[N-mono(n-hexyl)amino]-4-pyridyl}-1,2,4-triazole], in the series with gastric acid secretion, the inhibition in vivo at 1 mg/kg was 0% and the inhibition in vivo at 10 mg/kg came out at 40%.
As to `CCN(C)c1cc(-c2nc(N)n[nH]2)ccn1` [Example IX, 3-amino-5-[2-(N-methyl-N-ethylamino)-4-pyridyl]-1,2,4-triazole], the inhibition in vivo at 1 mg/kg with gastric acid secretion is 53%.
Turning to `Nc1n[nH]c(-c2ccnc(NCCc3ccccc3)c2)n1` [Example XII, 3-amino-5-{2-[N-mono(β-phenylethyl)amino]-4-pyridyl}-1,2,4-triazole], in the series on gastric acid secretion, the inhibition in vivo at 1 mg/kg is 18% and the inhibition in vivo at 10 mg/kg came to 50%.
`CC(C)Nc1cc(-c2nc(N)n[nH]2)ccn1` [Example XXIII, 3-amino-5-[2-(N-monoisopropylamino)-4-pyridyl]-1,2,4-triazole]: in the series on gastric acid secretion, the inhibition in vivo at 1 mg/kg amounted to 35% and the inhibition in vivo at 5 mg/kg was 52%.
On to `COCCNc1cc(-c2nc(N)n[nH]2)ccn1` [Example VII, 3-amino-5-{2-[N-mono(β-methoxyethyl)amino]-4-pyridyl}-1,2,4-triazole], for which, in the series on gastric acid secretion, the inhibition in vivo at 1 mg/kg came to 11%.
Turning to `CCCCCCCCCCNc1cc(-c2nc(N)n[nH]2)ccn1` [Example III, 3-amino-5-{2-[N-mono(n-decyl)amino]-4-pyridyl}-1,2,4-triazole], the inhibition in vivo at 10 mg/kg with gastric acid secretion was determined as 14%.
In the case of `Nc1n[nH]c(-c2ccnc(NCCO)c2)n1` [Example V, 3-amino-5-{2-[N-mono(β-hydroxyethyl)amino]-4-pyridyl}-1,a,4-triazole], in the series on gastric acid secretion, the inhibition in vivo at 1 mg/kg worked out at 23% and the inhibition in vivo at 10 mg/kg came to 34%.
As for `CN(C)c1cc(-c2nc(N)n[nH]2)ccn1` [Example VIII, 3-amino-5-[2-(N,N-dimethylamino)-4-pyridyl]-1,2,4-triazole], in the series on gastric acid secretion, the inhibition in vivo at 1 mg/kg amounted to 48%, the inhibition in vivo at 5 mg/kg came to 80% and the inhibition in vivo at 10 mg/kg is 96%.
For `Nc1cc(-c2nc(N)n[nH]2)ccn1` [Example XVIII, 3-amino-5-(2-aminopyridyl)-1,2,4-triazole monohydrate], in that order: 30%, 86% and 94%.

The values above are taken from patent US4276297A, “Pyridylaminotriazole therapeutic agents” (Pfizer Inc., priority 1979, dated 1981).
